This is an account of results in patent US4064121A, “Substituted nitrobenzophenone derivatives and a process for the preparation thereof” (Richter Gedeon Vegyeszeti Gyar Rt., priority 1973, dated 1977).

In data set [1] the test system is central nervous system. The note with it: known effects at the test animals; cited from earlier work.
Data set [2] deals with liver microsomal enzyme. Description: Enzyme inductive effect (shortening of hexobarbital sleeping time in Wistar female rats). In kind it is in vivo. The note with it: for Mean duration of sleeping ± S.E.: 60 mg./kg. p.o., 24 hours later hexobarbital 40 mg./kg. i.v., female Wistar rats, control 19.4 ± 1.88. On the procedure: As reference substances, phenobarbital and phenacetine were used in the experiments. The pharmacological tests were carried out as follows:
To investigate the enzyme inductive effect, Wistar female rats, each weighing 40 to 50 g. were treated with pure solvent, or with a dosage of 60 mg./kg. of phenobarbital or the compound to be tested, respectively. 24 hours after this treatment 40 mg./kg. of hexobarbital were administered intravenously into the animals. The reduction of the elimination period and the liver enzyme induction was expressed as the shortening of the duration of sleeping.

Data set [3] is described as follows: Antipyretic effect (rectal temperature after yeast suspension and pyrago in male rats). In kind it is in vivo. The note with it: 40 mg./kg. orally, yeast and pyrago fever, recorded for 5 hours. The protocol: To test the antipyretic effect, a 15% yeast suspension was administered to male rats each weighing 180 ±10 g. No food was given to the animals, they could consume, however, arbitrary amount of water. 16 hours after the administration of yeast the rectal body temperature of the animals was taken, and the animals were treated with pyrago in an intravenous dosage of 50 M bact./animal. The compound to be tested was administered orally into the animals, thereafter the change in rectal temperature both for the treated and the control animals was recorded for 5 hours, using an "Elab" type electrothermometer. Phenacetine, used as reference substance, and the compounds of the invention were administered in dosages of 40 mg./kg. body weight.

A short description of data set [4]: LD50 p.o. (acute toxicity). The note with it: in vivo, po, species not given.
For data set [5], the system named is central nervous system. The data set is described as follows: Central nervous system effects (anticonvulsive, rotarod muscle relaxation, sedative tests). In kind it is in vivo. The note with it: in the dosage utilized. Background: Falling from the rotarod earlier than controls is read as motor impairment.

Consider `CCC1(c2ccccc2)C(=O)NC(=O)NC1=O` [Phenobarbital, reference compound], for which, in data set [1], the “effects on the central nervous system” value was “significant effects on the central nervous system, which manifests at the test animals in ataxia, sedatio and anticonvulsive effect”. In addition, the “Mean duration of sleeping ± S.E.” value in data set [2] (* = (below a significance level of 5 %)) came to 14.2 ± 1.88 min.
Molecule `CCOc1ccc(NC(C)=O)cc1` [Phenacetine, reference compound] displayed a Decrease of temperature in data set [3] of -1.1 °C.
`O=C(c1ccccc1)c1ccc(N2CCOCC2)c([N+](=O)[O-])c1` [Example B2, 3-nitro-4-morpholino-benzophenone]: the median lethal dose (LD50) (usually the dose at which mortality reaches 50%) in data set [4] was found to be 1200 mg/kg. In addition, the “effect on the central nervous system” value in data set [5] is “no effect on the central nervous system”. The “Mean duration of sleeping ± S.E.” value in data set [2] (* = p>0.05 (below a significance level of 5 %)) is 14.6 ± 1.65 min. The inductive effect result in data set [2] (in words, compared with phenobarbital) is “the same as that of phenobarbital”.
For `CC[N+]1(C)CCN(c2ccc(C(=O)c3ccccc3)cc2[N+](=O)[O-])CC1` [Example B11, 3-nitro-4-(N-methyl-piperazino)-benzophenone ethobromide], the LD50 in data set [4] was greater than 3000 mg/kg. For the same molecule, the Decrease of temperature in data set [3] is -1.1 °C.
Taken in the same sequence, the figures for `CC(C)CN(CC(C)C)c1ccc(C(=O)c2ccccc2)cc1[N+](=O)[O-]` [Example B9, 3-Nitro-4-(N.N-diisobutylamino)-benzophenone] were greater than 3000 mg/kg and -1.0 °C.
